In publication PMC3545278 (Journal of pharmaceutical and biomedical analysis, 2012):
Where a name gives a salt, the structure may show the parent alone. Read-outs that look alike come from different tables or passages of the source.

Tests used:
[1] = Plasma stability, 37°C for 20 min, human plasma; assay type: in vitro ADME; settings: 5% CO2, 20 min, mean ± SEM
[2] = Ultrafiltration; assay type: in vitro ADME, mouse; settings: for recovery at 20 min, 10 μM / fraction unbound at 20 min, 10 μM: mouse; for recovery at 20 min, 10 μM / % Recovery from plasma / %PPB (UF): mouse plasma; for fraction unbound at 20 min, 10 μM: plasma; for % Recovery from plasma / %PPB (UF): 10 μM, mean ± SEM, n=3; for % Recovery from plasma: UF mass balance; for %PPB (UF): mass balance
[3] = Ultrafiltration; settings: human; for recovery at 20 min, 10 μM: human plasma; for fraction unbound at 20 min, 10 μM: plasma
[4] = in vitro; settings: human
[5] = Rapid equilibrium dialysis; assay type: in vitro ADME, mouse; settings: for fraction unbound at 4 h, 10 μM: mouse, plasma, pH 7.4
[6] = longer than 20 min; cited from earlier work
[7] = Plasma stability as stated in text, species not specified; assay type: in vitro ADME; settings: 20 minute incubation at 37°C
[8] = Rapid equilibrium dialysis; assay type: in vitro ADME; settings: human, plasma, pH 7.4
[9] = human, cited from earlier work

Structure (SMILES) | %Stability [1] [%] | recovery at 20 min, 10 μM [2] [%] | recovery at 20 min, 10 μM [3] [%] | fraction unbound at 20 min, 10 μM [2] | fraction unbound at 4 h, 10 μM [5] | fraction unbound at 4 h, 10 μM [8] | fraction unbound at 20 min, 10 μM [3] | other results
O=C(Nc1cccc2cccnc12)c1ccc(N2C(=O)[C@@H]3[C@H](C2=O)[C@@H]2C=C[C@H]3C2)cc1 [IWR1] |  |  |  |  |  |  |  | % Recovery from plasma [2]: 81.1±2.1%; %PPB (UF) [2]: 95.5±0.9%; stability in plasma over longer periods of time [6]: known instability; stability in plasma [7]: stable
COc1ccc2c(c1)c(CC(=O)O)c(C)n2C(=O)c1ccc(Cl)cc1 [Indomethacin] | 111.0±8.8 | 99 ± 9.7 | 89.7 ± 7.2 | 0.011 | 0.013 | 0.002 | 0.004 | %PPB (Literature) ([9]; ref 23): 99 [23] %
CC(C)NCC(O)COc1cccc2ccccc12 (stereo not drawn) [Propranolol HCl] | 98.7±1.2 | 104 ± 7.6 | 100 ± 1.6 | 0.326 | 0.264 | 0.166 | 0.328 | %PPB (Literature) ([9]; ref 8): 65–70 [8] %
Nc1ccc(S(=O)(=O)Nc2ncccn2)cc1 [Sulfadiazine] |  | 108 ± 2 |  | 0.403 | 0.47 |  |  | 
CC(=O)Nc1ccc(O)cc1 [Acetaminophen] | 98.6±2.6 | 97.2 ± 2.5 | 102.6 ± 0.9 | 0.701 | 0.611 | 0.79 | 0.733 | %PPB (Literature) ([9]; ref 20): 24±7 [20] %
O=S(=O)(Nc1ccccc1)c1ccc(NC(=S)Nc2ccccc2)cc1 [LED209E] |  |  |  |  |  |  |  | % Recovery from plasma [2]: 101.0±1.5%; %PPB (UF) [2]: 99.3±0.1%; %PPB (RED) ([5]; mouse plasma, 10 μM, 4 hours at 37°C, mean ± SEM, n=3): 99.2±0.1%
C[C@]12CCC(=O)C=C1CC[C@@H]1[C@@H]2[C@@H](O)C[C@@]2(C)[C@H]1CC[C@]2(O)C(=O)CO [Hydrocortisone] | 98.5±1.1 | 102 ± 4 | 104 ± 3.3 | 0.519 | 0.412 | 0.279 | 0.368 | %PPB (Literature) ([9]; ref 8): 65%; %PPB (Literature) ([9]; ref 23): 80%
CC(=O)O[C@H]1C(=O)[C@@]2(C)[C@H]([C@H](OC(=O)c3ccccc3)[C@]3(O)C[C@H](OC(=O)[C@H](O)[C@@H](NC(=O)c4ccccc4)c4ccccc4)C(C)=C1C3(C)C)[C@]1(OC(C)=O)CO[C@@H]1C[C@@H]2O [Paclitaxel] | 104.8±2.0 | 90.8 ± 3.2 | 87.6 ± 2.2 | 0.046 | 0.024 | 0.03 | 0.132 | %PPB (Literature) ([9]; ref 23): 88 [23] %
CC[C@H](C)C(=O)O[C@H]1C[C@@H](C)C=C2C=C[C@H](C)[C@H](CC[C@@H]3C[C@@H](O)CC(=O)O3)[C@H]21 [Lovastatin] | 96.2±5.1 | 82.1 ± 8.8 | 87.6 ± 3.6 | 0.029 | 0.084 | 0.004 | 0.026 | %PPB (Literature) ([9]; ref 21): >95 [21] %
OC(CNc1ccccc1)Cn1c2ccc(Br)cc2c2cc(Br)ccc21 (stereo not drawn) [P7C3] |  |  |  |  |  |  |  | % Recovery from plasma [2]: 100.0±9.4%

Continued, in another order:

%Stability [1] [%] | recovery at 20 min, 10 μM [2] [%] | recovery at 20 min, 10 μM [3] [%] | fraction unbound at 20 min, 10 μM [2] | fraction unbound at 4 h, 10 μM [5] | fraction unbound at 4 h, 10 μM [8] | fraction unbound at 20 min, 10 μM [3] | Structure (SMILES) | other results
102.2±0.8 | 106 ± 3.1 | 97.4 ± 0.2 |  |  |  |  | CCCCNC(=O)NS(=O)(=O)c1ccc(C)cc1 [Tolbutamide] | 
100.4±4.5 | 99.8 ± 3.9 |  |  |  |  |  | CC(=O)CC(c1ccccc1)c1c(O)c2ccccc2oc1=O (stereo not drawn) [Warfarin] | recovery at 20 min, 10 μM [4]: 94.2 ± 3.8%
 | 94.3 ± 3.7 |  | 0.025 | 0.009 |  |  | CS(=O)(=O)c1ccc(C(=O)Nc2ccc(Cl)c(-c3ccccn3)c2)c(Cl)c1 [Vismodegib] | 
97.5±3.1 | 87.5 ± 2.5 | 79.1 ± 2.1 | 0.174 | 0.073 | 0.113 |  | CC[C@]1(O)C[C@@H]2CN(CCc3c([nH]c4ccccc34)[C@@](C(=O)OC)(c3cc4c(cc3OC)N(C)[C@H]3[C@@](O)(C(=O)OC)[C@H](OC(C)=O)[C@]5(CC)C=CCN6CC[C@]43[C@@H]65)C2)C1 [Vinblastine] | 
101.1±1.9 | 98.7 ± 0.6 | 100 ± 2.1 | 0.622 | 0.536 | 0.241 | 0.396 | O=C(CCCCCCC(=O)Nc1ccccc1)NO [Vorinostat] | 
 | 107 ± 1.8 |  | 0.184 | 0.195 |  |  | Cc1ccnc(NS(=O)(=O)c2ccc(N)cc2)n1 [Sulfamerazine] | 
 | 109 ± 1.1 |  | 0.04 | 0.044 |  |  | COc1cc(NS(=O)(=O)c2ccc(N)cc2)nc(OC)n1 [Sulfadimethoxine] | 
106.5±3.3 | 99.6 ± 8.4 | 104 ± 2.1 | 0.81 | 0.638 | 0.627 | 0.819 | CC(C)(C)NCC(O)c1cc(O)cc(O)c1 (stereo not drawn) [Terbutaline] | %PPB (Literature) ([9]; ref 21): 20%; %PPB (Literature) ([9]; ref 23): 25%
101.9±0.4 | 104 ± 1.2 | 99.4 ± 1.7 | 0.348 | 0.353 | 0.108 | 0.184 | Cc1nnc(NS(=O)(=O)c2ccc(N)cc2)s1 [Sulfamethiazole] | %PPB (Literature) ([9]; ref 22): 85–90 [22] %
 | 108 ± 2.1 |  | 0.402 | 0.418 |  |  | Nc1ccc(S(=O)(=O)Nc2nccs2)cc1 [Sulfathiazole] | 
